Patent publication US10702519B2, “Use of methoxatin, derivative and/or salt thereof in Sjogren's syndrome and pharmaceutical composition” (NANJING SHUPENG LIFESCIENCE CO., LTD, priority 2016, dated 2020)
“Also recorded” adds a separate entry of the source. Marks after values point to notes of the source that are not given here.

Legend:
[1] = system: inflammatory factors in mouse submandibular glands tissue; test: Realtime quantitative PCR of inflammatory factors in mouse submandibular gland tissue; assay type: in vivo; details: for expression of IL-1β / expression of IL-6 / expression of IL-10 / expression of TNF-α: submandibular glands tissue, 36 weeks, p<0.05
Description: Take the mouse submandibular gland tissue and extract RNA using Trizol. Superscript III was used for reverse transcription. Reaction was performed at 42° C. for 30 minutes. Oligo dT and Random Hexamer were used as primers for reverse transcription. Realtime quantitative PCR reaction system: 2×PCR premix 10 μl, Primers 0.8 μl, cDNA 1 μl, add balance of H2O to 20 μl; Reaction conditions: 95° C. 10 min, 95° C. 15 s, 60° C. 60 s, Read plate for 50 cycles; Melting curve Analysis: Temperature 55° C.-95° C., read once per minute. Set up 3 replicates for each sample.

NF-κB = test: Western Blot detection of NF-κB activation in mouse submandibular gland tissue; assay type: in vivo; details: for phosphorylation level of P65: compared with the control group
Description: Detection of NF-κB Activation in Submandibular Gland Tissue of Mouse Submandibular Gland by Western Blot
Take the same amount of total protein for each sample, add 4×SDS loading buffer according to the ratio of protein sample: 4×SDS at 3:1, mix well, boil at 95° C. for 5 min, and prepare 10% separation gel and 5% concentration gel. Perform SDS-PAGE electrophoresis, transfer the membrane, and block the PVDF membrane with 5% solution of skim milk in TBST for 1 hour at room temperature or overnight at 4° C. Dilute antibody with blocking solution, incubate at room temperature for 2 h or 4° C. overnight. Wash membrane, incubate with secondary antibody, and then wash the membrane again. After the equal volume of liquids A and B in the luminescence kit were mixed in a vessel, the mixture was uniformly added dropwise to the PVDF membrane, and the reaction was carried out in the dark for 3-5 minutes.
At the 36th week of treatment, the mouse submandibular glands were taken and Western Blot was used to detect the activation of NF-κB. […] P65 is the protein subunit of NF-κB, and its phosphorylation level directly reflects the activity of NF-κB. In addition, IκB binds to NF-κB to prevent its entry into the nucleus and exerts its activity. Once IκB is phosphorylated, it is degraded and releases NF-κB.

NOD mice = test: Saliva flow detection (pilocarpine-stimulated) in NOD mouse model of Sjogren's syndrome; assay type: in vivo; details: for salivary flow compared with the control group: P<0.05; for SFR (salivary flow): NOD mice, PQQ 1 mg/kg/day, active vitamin D 0.1 μg/kg/day; for salivary secretion function of NOD mice: summary statement
Description: Model: NOD mouse model. NOD (Non-obese Diabetes) mice are a genetically deficient animal model of spontaneous diabetes. The female mice develop diabetes from 14 weeks and the incidence can reach as high as 80% by 30 weeks. NOD mice are also an animal model of Sjogren's syndrome. Mice develop inflammatory cell infiltration in the submandibular gland from 12 weeks of age, with increased expression of multiple inflammatory factors, and reduced salivary secretion and increased salivary salt concentration from 16 to 20 weeks of age.
Experimental grouping: 8-week-old female NOD mice were purchased from Shanghai SLE Experimental Animal Corporation and divided into control group, active vitamin d group, PQQ group and PQQ combined with active vitamin D group. There were four different treatment groups, 10 in each group. Saliva flow rates were measured at 12, 24, and 36 weeks of age. The amounts of PQQ and active vitamin D were 1 mg/kg body weight per day and 0.1 μg/kg body weight per day, respectively.
a. Intraperitoneal injection of 1.2% avertin (Chinese name: tribromoethanol), injection dose: 0.2 ml/10 g body weight, formula: (1) […] avertin dissolved in 0.25 ml t-amyl alcohol, shaking for 12 hours to completely dissolve; (2) Add 19.75 ml of 0.9% NaCl solution to obtain 1.2% avertin. Mice were anesthetized gently.
b. Subcutaneous pilocarpine injection in the neck, injection dose: 0.5 mg/kg=0.01 mg/20 g body weight, mother liquor concentration: 0.5 g/10 ml physiological saline=50 mg/ml=0.05×103 mg/ml, solution concentration: the mother liquor was diluted 1000 times, ie, 0.05 mg/ml, to stimulate saliva secretion.
c. Began to collect saliva after 5 minutes, that is, cotton ball with about 8 mg dry weight is made from sterile cotton ball, which is then put into a 1.5 mL EP tube to determine the dry weight. When measuring saliva secretion, the cotton ball is put into the mouse cheek and then taken into the EP tube after 10 min. The wet weight is determined on the electronic balance. Saliva secretion=wet weight of cotton balls−dry weight of cotton balls.

[2] = rat, cited from earlier work
[3] = system: SOD in submandibular gland tissue of mice; test: Detection of SOD content in submandibular gland tissue; assay type: in vivo, mouse; details: for content of SOD compared with the control group: 36 weeks; for SOD (Mean ± SD): submandibular gland tissue of mice at 36 weeks of age
Description: Detection of SOD content: The submandibular gland tissue of mice were used to prepare tissue homogenates with icy physiological saline, and the protein content was quantified by BCA method. Refer to the kit operation instructions. Take 0.2 ml of the sample and mix it with 1.3 ml of test solution. Incubate at 37° C. for 40 min. Add 2 ml of chromogenic agent. Placed at room temperature for 10 min. Determine OD at 550 nm. The results are expressed in terms of U/mg protein, which states that the corresponding SOD amount per milligram of protein in a 1 ml reaction solution with a SOD inhibition rate of 50% is an SOD activity unit.

[4] = system: mouse submandibular gland tissue; test: Mouse submandibular gland tissue slice detection (hematoxylin-eosin), lymphocytic infiltration; assay type: in vivo; details: NOD mice, 36 weeks age, FIG. 3
Description: 36 weeks age of mouse submandibular gland tissue was isolated, embedded in paraffin and sliced, stained with hematoxylin-eosin and photographed with an inverted microscope.

[5] = system: MDA in submandibular gland tissue of mice; test: Detection of MDA content in submandibular gland tissue; assay type: in vivo, mouse; details: for content of MDA compared with the control group: 36 weeks, P<0.05; for MDA (Mean ± SD): submandibular gland tissue of mice at 36 weeks of age
Description: Detection of MDA content: The submandibular gland tissue in the submandibular glands of mice were harvested and homogenized with icy physiological saline. The protein content was quantified by BCA. Take 1 ml homogenate, add 1 ml 30% trichloroacetic acid and 1 ml 0.67% TBA in turn, bath in boiling water for 30 min and cool to room temperature. After centrifugation at 3000 g for 10 min, the absorbance (A) of the supernatant was measured at 535 nm, and the MDA content was calculated from the standard curve. The result was expressed in nmol/mg tissue.

[6] = chemical stability of o-quinone structure; cited from earlier work
[7] = submandibular glands, 36th week

O=C(O)c1cc(C(=O)O)c2c(n1)C(=O)C(=O)c1cc(C(=O)O)[nH]c1-2 [PQQ, Pyrroloquinoline quinone]
expression of IL-1β [1]: significantly inhibited | expression of IL-6 [1]: significantly reduce; also recorded: significantly inhibited | expression of IL-10 [1]: significantly inhibited | expression of TNF-α [1]: significantly inhibited | expression of Il-1 ([1]; summary and FIG. 2 legend): significantly reduce | expression of gamma interferon ([1]; summary and FIG. 2 legend): significantly reduce | activity of NF-kappaB signaling pathway (NF-κB; submandibular gland tissues of NOD mice, summary statement): significantly reduce | phosphorylation level of IκB (NF-κB; [7]): significantly attenuated | phosphorylation level of P65 (NF-κB; [7]): significantly attenuated | salivary flow compared with the control group (NOD mice; 36th week): significantly higher | SFR (salivary flow) (NOD mice; 12 W of age): 2.55 (n = 10) μl/g/10 min | SFR (salivary flow) (NOD mice; 24 W of age): 3.21 (n = 6) μl/g/10 min | SFR (salivary flow) (NOD mice; 36 W of age): 3.75* (n = 5) μl/g/10 min | salivary flow compared with the control group (NOD mice; age of 24 weeks): no significant difference | salivary secretion function of NOD mice (NOD mice): significantly improve | adverse reactions ([2]; 100 mg/kg body weight per day for 14 consecutive days): no adverse reactions were found | LD50 [2]: 1000-2000 mg/kg body weight | content of SOD compared with the control group [3]: significantly higher | SOD (Mean ± SD) [3]: 198.21 ± 21.33 NU/mg protein | area of lymphocyte infiltration in submandibular gland [4]: significantly inhibit; also recorded: significantly reduced | content of MDA compared with the control group [5]: significantly lower | MDA (Mean ± SD) [5]: 4.61 ± 0.76 nmol/mg protein | oxidative stress levels in submandibular gland tissues of NOD mice ([5]; summary statement): significantly inhibit | redox cycles it can participate in [6]: 20,000

C=C1/C(=C\C=C2/CCC[C@]3(C)[C@@H]([C@H](C)CCCC(C)(C)O)CC[C@@H]23)C[C@@H](O)C[C@@H]1O [active vitamin D, 1,25-Dihydroxyvitamin D3, reference compound]
expression of IL-1β [1]: did not detect the effect | expression of IL-6 [1]: did not detect the effect | expression of IL-10 [1]: did not detect the effect | expression of TNF-α [1]: did not detect the effect | phosphorylation level of P65 (NF-κB; [7]): no significant change | salivary flow compared with the control group (NOD mice; 36th week): no statistical difference | SFR (salivary flow) (NOD mice; 12 W of age): 2.74 (n = 10) μl/g/10 min | SFR (salivary flow) (NOD mice; 24 W of age): 2.82 (n = 5) μl/g/10 min | SFR (salivary flow) (NOD mice; 36 W of age): 3.22 (n = 4) μl/g/10 min | salivary flow compared with the control group (NOD mice; age of 24 weeks): no significant difference | salivary secretion function of NOD mice (NOD mice): no effect | content of SOD compared with the control group [3]: no significant difference | SOD (Mean ± SD) [3]: 102.45 ± 14.22 NU/mg protein | content of MDA compared with the control group [5]: no significant difference | MDA (Mean ± SD) [5]: 9.48 ± 2.12 nmol/mg protein
